One test deals with ROCK1 (Homo sapiens (Human), UniProt Q13464). Put plainly: ROCK assay (Caliper LABCHIP peptide phosphorylation), ROCK1.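 Note: Read-out is separation of phosphorylated from unphosphorylated peptide, with kinase activity inhibition computed at every concentration of a dose-response series.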 The class given is biochemical. Particulars: 5 μM ATP, 1.5 μM peptide substrate.
In the next test the target is ROCK2 (Homo sapiens (Human), UniProt O75116). Nature of the test: ROCK assay (Caliper LABCHIP peptide phosphorylation), ROCK2.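 Note: reaction stopped with EDTA, then phosphorylated and unphosphorylated peptide resolved by microfluidic electrophoresis, kinase inhibition computed at each compound concentration in dose-response series, DMSO under 2%.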 Particulars: 5 μM ATP, 1.5 μM peptide substrate. The test is classed as biochemical.
Chain of ROCK2 (O75116 whole entry, species assumed): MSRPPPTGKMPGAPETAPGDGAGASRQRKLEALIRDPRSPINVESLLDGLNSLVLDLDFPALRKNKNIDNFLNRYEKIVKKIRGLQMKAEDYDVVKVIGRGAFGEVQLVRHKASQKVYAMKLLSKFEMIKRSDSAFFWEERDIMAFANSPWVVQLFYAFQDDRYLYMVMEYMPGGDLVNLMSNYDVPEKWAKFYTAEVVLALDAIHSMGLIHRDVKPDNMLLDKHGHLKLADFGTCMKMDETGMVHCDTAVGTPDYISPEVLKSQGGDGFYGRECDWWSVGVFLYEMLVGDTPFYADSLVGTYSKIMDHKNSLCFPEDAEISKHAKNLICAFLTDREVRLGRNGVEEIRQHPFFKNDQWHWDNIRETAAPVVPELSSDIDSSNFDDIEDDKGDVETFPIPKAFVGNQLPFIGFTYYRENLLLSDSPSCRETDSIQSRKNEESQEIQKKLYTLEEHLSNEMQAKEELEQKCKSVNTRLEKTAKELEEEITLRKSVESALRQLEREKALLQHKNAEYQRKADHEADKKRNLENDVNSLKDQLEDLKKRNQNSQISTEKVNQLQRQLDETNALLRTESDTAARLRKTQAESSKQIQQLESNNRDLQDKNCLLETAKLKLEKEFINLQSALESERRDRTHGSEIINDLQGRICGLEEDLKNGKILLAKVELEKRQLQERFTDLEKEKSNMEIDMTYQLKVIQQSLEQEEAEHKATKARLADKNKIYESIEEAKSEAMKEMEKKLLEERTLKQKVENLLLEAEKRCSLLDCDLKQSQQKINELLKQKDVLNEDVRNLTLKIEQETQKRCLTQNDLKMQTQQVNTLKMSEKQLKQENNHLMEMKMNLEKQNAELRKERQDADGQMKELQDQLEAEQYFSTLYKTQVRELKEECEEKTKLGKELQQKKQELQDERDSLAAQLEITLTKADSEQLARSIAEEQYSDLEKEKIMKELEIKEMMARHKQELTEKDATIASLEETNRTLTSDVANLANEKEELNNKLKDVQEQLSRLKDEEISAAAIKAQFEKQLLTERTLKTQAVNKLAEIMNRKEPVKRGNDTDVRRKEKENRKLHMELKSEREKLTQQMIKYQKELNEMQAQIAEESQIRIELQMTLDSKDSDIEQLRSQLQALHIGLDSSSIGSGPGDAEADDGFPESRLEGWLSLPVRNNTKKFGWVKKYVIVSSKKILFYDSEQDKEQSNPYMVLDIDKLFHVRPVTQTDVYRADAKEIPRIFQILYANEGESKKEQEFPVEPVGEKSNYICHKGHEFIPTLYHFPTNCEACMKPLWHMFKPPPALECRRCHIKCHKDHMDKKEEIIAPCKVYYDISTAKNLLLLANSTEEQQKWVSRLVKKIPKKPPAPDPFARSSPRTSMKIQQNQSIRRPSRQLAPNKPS

Chain of ROCK1 (Q13464 whole entry, species assumed): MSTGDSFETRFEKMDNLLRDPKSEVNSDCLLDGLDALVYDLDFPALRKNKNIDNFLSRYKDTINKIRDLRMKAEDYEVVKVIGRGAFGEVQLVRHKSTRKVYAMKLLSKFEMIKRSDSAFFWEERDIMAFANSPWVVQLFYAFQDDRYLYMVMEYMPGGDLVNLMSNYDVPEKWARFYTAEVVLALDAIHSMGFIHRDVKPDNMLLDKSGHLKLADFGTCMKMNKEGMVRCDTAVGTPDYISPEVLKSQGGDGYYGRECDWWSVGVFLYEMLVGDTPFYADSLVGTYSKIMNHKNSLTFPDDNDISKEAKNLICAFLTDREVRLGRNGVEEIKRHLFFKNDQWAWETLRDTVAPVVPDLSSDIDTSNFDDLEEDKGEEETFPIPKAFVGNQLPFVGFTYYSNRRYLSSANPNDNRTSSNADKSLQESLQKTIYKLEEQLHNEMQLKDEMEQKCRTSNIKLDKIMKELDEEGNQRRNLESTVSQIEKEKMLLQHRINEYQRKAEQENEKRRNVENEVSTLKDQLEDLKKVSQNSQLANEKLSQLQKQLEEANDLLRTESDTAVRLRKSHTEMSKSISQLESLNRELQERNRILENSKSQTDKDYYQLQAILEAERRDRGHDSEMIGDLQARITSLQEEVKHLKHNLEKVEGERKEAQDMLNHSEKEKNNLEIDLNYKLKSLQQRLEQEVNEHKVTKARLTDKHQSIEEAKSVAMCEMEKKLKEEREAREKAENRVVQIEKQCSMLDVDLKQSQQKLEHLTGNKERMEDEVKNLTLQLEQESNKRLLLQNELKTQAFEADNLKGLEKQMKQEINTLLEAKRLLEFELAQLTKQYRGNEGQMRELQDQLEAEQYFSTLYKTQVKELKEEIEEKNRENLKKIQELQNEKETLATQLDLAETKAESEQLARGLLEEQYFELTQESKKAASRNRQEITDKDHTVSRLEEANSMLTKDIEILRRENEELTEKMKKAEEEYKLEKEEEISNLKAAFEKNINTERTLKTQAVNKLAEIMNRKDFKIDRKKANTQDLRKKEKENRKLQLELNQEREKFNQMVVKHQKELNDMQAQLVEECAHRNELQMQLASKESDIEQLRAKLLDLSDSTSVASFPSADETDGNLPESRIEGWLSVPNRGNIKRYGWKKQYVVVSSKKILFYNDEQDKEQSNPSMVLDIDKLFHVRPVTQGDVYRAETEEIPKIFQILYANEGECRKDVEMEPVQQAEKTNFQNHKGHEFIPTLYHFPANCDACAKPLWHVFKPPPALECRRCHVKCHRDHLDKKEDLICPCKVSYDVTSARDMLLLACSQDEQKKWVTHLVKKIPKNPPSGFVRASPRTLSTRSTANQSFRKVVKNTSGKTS

In the case of `COc1cc(C(=O)NC(C)c2ccccc2Cl)ccc1-c1cn[nH]c1` (racemic) [Example 4, (+/−)-N-(1-(2-chlorophenyl)ethyl)-3-methoxy-4-(1H-pyrazol-4-yl) benzamide], the IC50 turned out to be 17.7 nM on ROCK1 and 8.99 nM at ROCK2. As for `COc1cc(C(=O)N[C@H]2C[C@@H]2c2ccccc2)ccc1-c1cn[nH]c1` (racemic) [Example 68, (+/−)-3-methoxy-N-(trans-2-phenyl-cyclopropyl)-4-(1H-pyrazol-4-yl)benzamide], the half-maximal inhibitory concentration (IC50) against ROCK1 was 30.1 nM; on ROCK2, 8.52 nM. Take `COc1cc(C(=O)NC(C)c2cccc(CN3CCN(C)CC3)c2)ccc1-c1cn[nH]c1` (racemic) [Example 81, (+/−)-3-methoxy-N-(1-(3-((4-methylpiperazin-1-yl)methyl)phenyl)ethyl)-4-(1H-pyrazol-4-yl)benzamide]: the concentration for half-maximal inhibition (IC50) was 156 nM on ROCK1 and 28.3 nM against ROCK2.

Turning to `CC(NC(=O)c1ccc(-c2cn[nH]c2)c(C(F)F)c1)c1ccccc1F` (racemic) [Example 299, 3-(Difluoromethyl)-N-(1-(2-fluorophenyl)ethyl)-4-(1H-pyrazol-4-yl)benzamide], the values for the IC50 against ROCK1 and on ROCK2 were 110 nM and 53.3 nM, respectively. The corresponding values for `CC(NC(=O)c1ccc(-c2cn[nH]c2)c(C(F)F)c1)c1ccccc1F` (single isomer, unassigned) [Example 300, 3-(Difluoromethyl)-N-(1-(2-fluorophenyl)ethyl)-4-(1H-pyrazol-4-yl)benzamide] are 108 nM and 77.1 nM. For `CC(NC(=O)c1ccc(-c2cn[nH]c2)c(C(F)F)c1)c1ccccc1F` (single isomer, unassigned) [Example 301, 3-(Difluoromethyl)-N-(1-(2-fluorophenyl)ethyl)-4-(1H-pyrazol-4-yl)benzamide], in that order: 582 nM and 361 nM.

In the case of `COC(=O)CC(NC(=O)c1ccc(-c2cn[nH]c2)c(OC)c1)c1ccccc1` (stereo in doubt) [Example 92, methyl (3R)-3-{[3-methoxy-4-(1H-pyrazol-4-yl)phenyl] formamido}-3-phenyl-propanoate], the figures for the IC50 against ROCK1 and against ROCK2 were 53.7 nM and 21.4 nM, respectively. On to `COc1cc(C(=O)NC(C)c2cccc3ccccc23)ccc1-c1cn[nH]c1` (stereo in doubt) [Example 172, 3-methoxy-N-[(1R)-1-(naphthalen-1-yl)ethyl]-4-(1H-pyrazol-4-yl)benzamide], for which the IC50 against ROCK1 worked out at 6.68 nM; at ROCK2, 2.32 nM. The corresponding values for `COc1cc(C(=O)NC(C)c2ccccc2OC)ccc1-c1cn[nH]c1` (stereo in doubt) [Example 173, 3-methoxy-N-[(1R)-1-(2-methoxyphenyl)ethyl]-4-(1H-pyrazol-4-yl)benzamide] are 72.4 nM and 27.2 nM. For the molecule `COc1cc(C(=O)NC2(c3ccccc3Cl)CC2)ccc1-c1cn[nH]c1` [Example 2, N-(1-(2-chlorophenyl)cyclopropyl)-3-methoxy-4-(1H-pyrazol-4-yl)benzamide], the results for the IC50 against ROCK1 and against ROCK2 were 13.9 nM and 4.73 nM, respectively. `COc1cc(C(=O)NCc2cccc(O)c2)ccc1-c1cn[nH]c1` [Example 6, N-(3-hydroxybenzyl)-3-methoxy-4-(1H-pyrazol-4-yl)benzamide] registered a half-maximal inhibitory concentration (IC50) at ROCK2 of 0.85 nM.

Regarding `COC(=O)c1cccc(CNC(=O)c2ccc(-c3cn[nH]c3)c(OC)c2)c1` [Example 8, methyl 3-((3-methoxy-4-(1H-pyrazol-4-yl)benzamido)methyl)benzoate], at ROCK2, the 50% inhibitory concentration (IC50) came out at 0.85 nM. As for `COc1cc(C(=O)NCc2csc(-c3ccccc3)n2)ccc1-c1cn[nH]c1` [Example 9, 3-methoxy-N-((2-phenylthiazol-4-yl)methyl)-4-(1H-pyrazol-4-yl)benzamide], the IC50 on ROCK1 amounted to 155 nM; against ROCK2 it was 61.9 nM. `COc1cc(C(=O)NC(CN2CCOCC2)c2ccccc2)ccc1-c1cn[nH]c1` (stereo not shown) [Example 10, 3-methoxy-N-(2-morpholino-1-phenylethyl)-4-(1H-pyrazol-4-yl)benzamide]: the half-inhibitory concentration (IC50) against ROCK1 stood at 107 nM; at ROCK2 it was 44.5 nM. Regarding `COc1cc(C(=O)NC(CNC(=O)OC(C)(C)C)c2ccccc2)ccc1-c1cn[nH]c1` (stereo not shown) [Example 11, tert-butyl (2-(3-methoxy-4-(1H-pyrazol-4-yl)benzamido)-2-phenylethyl) carbamate], the IC50 on ROCK1 came out at 108 nM. For `COc1cc(C(=O)NC(CN2CCN(C)CC2)c2ccccc2)ccc1-c1cn[nH]c1` (stereo not shown) [Example 13, 3-methoxy-N-(2-(4-methylpiperazin-1-yl)-1-phenylethyl)-4-(1H-pyrazol-4-yl)benzamide], the concentration for half-maximal inhibition (IC50) against ROCK1 was 147 nM; at ROCK2 it was 77.1 nM. For `COc1cc(C(=O)NC(CN2CCCC2)c2ccccc2)ccc1-c1cn[nH]c1` (stereo not shown) [Example 14, 3-methoxy-N-(1-phenyl-2-(pyrrolidin-1-yl)ethyl)-4-(1H-pyrazol-4-yl)benzamide], in that order: 243 nM and 86.4 nM. For `COc1cc(C(=O)NCc2ccccn2)ccc1-c1cn[nH]c1` [Example 15, 3-methoxy-4-(1H-pyrazol-4-yl)-N-(pyridin-2-ylmethyl) benzamide], in that order: 184 nM and 60.4 nM. In the case of `COc1cc(C(=O)NCc2nc3ccccc3s2)ccc1-c1cn[nH]c1` [Example 16, N-(benzo[d]thiazol-2-ylmethyl)-3-methoxy-4-(1H-pyrazol-4-yl)benzamide], the IC50 on ROCK1 was 556 nM; against ROCK2, 438 nM. The corresponding values for `COc1cc(C(=O)NCc2cccc(F)c2)ccc1-c1cn[nH]c1` [Example 17, N-(3-fluorobenzyl)-3-methoxy-4-(1H-pyrazol-4-yl)benzamide] are 8.42 nM and 4.01 nM. `COc1cc(C(=O)NCc2cccc(-c3ccccc3)c2)ccc1-c1cn[nH]c1` [Example 18, N-([1,1′-biphenyl]-3-ylmethyl)-3-methoxy-4-(1H-pyrazol-4-yl)benzamide]: the 50% inhibitory concentration (IC50) against ROCK1 was 334 nM; against ROCK2, 129 nM.

`COc1cc(C(=O)NCc2cccnc2)ccc1-c1cn[nH]c1` [Example 19, 3-methoxy-4-(1H-pyrazol-4-yl)-N-(pyridin-3-ylmethyl) benzamide]: the concentration for half-maximal inhibition (IC50) at ROCK1 was 104 nM; at ROCK2 it was 23.8 nM. On to `COc1cc(C(=O)NC(C)c2ccccc2)ccc1-c1cn[nH]c1` (stereo not shown) [Example 20, 3-methoxy-N-(1-phenylethyl)-4-(1H-pyrazol-4-yl)benzamide], for which the IC50 against ROCK1 stood at 10.5 nM; against ROCK2 it was 2.24 nM. In turn, `CNC(=O)c1cccc(CNC(=O)c2ccc(-c3cn[nH]c3)c(OC)c2)c1` [Example 65, 3-Methoxy-N-(3-(methylcarbamoyl)benzyl)-4-(1H-pyrazol-4-yl)benzamide] came in with a half-maximal inhibitory concentration (IC50) at ROCK2 of 0.85 nM.

On to `COc1cc(C(=O)NC(C)Cc2ccc(F)cc2)ccc1-c1cn[nH]c1` (stereo not shown) [Example 111, N-[1-(4-fluorophenyl)propan-2-yl]-3-methoxy-4-(1H-pyrazol-4-yl)benzamide], for which half-maximal inhibition against ROCK1 (IC50) was put at 35.8 nM. On ROCK2, `C[C@@H](NC(=O)c1cc(F)c(-c2cn[nH]c2)cc1OCCN(C)C)c1ccccc1` [Example 310, 2-[2-(dimethylamino)ethoxy]-5-fluoro-N-[(1R)-1-phenylethyl]-4-(1H-pyrazol-4-yl)benzamide] returned an IC50 of 675 nM.

As a reminder, the IC50 is the concentration that inhibits the measured activity by half. Low values mean inhibition by little substance, high ones a need for much substance.

These data come from patent US9458110B2, “Phenylpyrazole derivatives as potent ROCK1 and ROCK2 inhibitors” (BRISTOL-MYERS SQUIBB COMPANY, priority 2013, dated 2016).
